Measured values as given in US20260042755A1, “GPR6 INVERSE AGONISTS” (MapLight Therapeutics, Inc., priority 2022, published 2026).

Assays:
GPR6 = biological target: T1, GPR6 (Homo sapiens, UniProt P46095); test: GPR6 antagonist functional cAMP assay (LANCE Ultra cAMP TR-FRET, CHO cells stably expressing GPR6); assay type: cell-based
T1 construct: expressed in transfected cells; host or cells: CHO cells
Procedure, shortened: (§1)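 10,000 cells/well; KRB buffer + 0.1% BSA + 150 μM Ro 20-1724; cpd 45 min, 37 °C, 0.1% DMSO; TR-FRET cAMP, 665 nm; 4-PL fit, normalized to DMSO (0.1%) and reference (100%) → IC50.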

GPR3 = biological target: T2, GPR3 (Homo sapiens, UniProt P46089); test: GPR3 antagonist functional cAMP assay (LANCE Ultra cAMP TR-FRET, CHO cells stably expressing GPR3); assay type: cell-based
T2 construct: expressed in transfected cells; host or cells: CHO cells
Procedure, shortened: as §1

[1] = CHO cells stably expressing GPR6, cAMP assay (Example 24)
[2] = CHO cells stably expressing GPR3, cAMP assay (Example 24)
[3] = CHO cells stably expressing GPR6, cAMP assay
[4] = CHO cells stably expressing GPR3, cAMP assay
[5] = procedure as described in Example 24

T1 sequence (P46095 whole entry): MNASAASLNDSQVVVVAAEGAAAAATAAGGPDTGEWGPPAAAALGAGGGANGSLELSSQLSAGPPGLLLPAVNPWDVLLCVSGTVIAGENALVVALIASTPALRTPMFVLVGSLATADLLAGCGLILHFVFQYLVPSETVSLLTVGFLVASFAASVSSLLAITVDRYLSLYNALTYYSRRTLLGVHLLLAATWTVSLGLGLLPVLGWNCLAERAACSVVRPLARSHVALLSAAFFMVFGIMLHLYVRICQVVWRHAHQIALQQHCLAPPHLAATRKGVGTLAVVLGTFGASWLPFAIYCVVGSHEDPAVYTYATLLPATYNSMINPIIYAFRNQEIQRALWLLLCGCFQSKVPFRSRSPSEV
T2 sequence (P46089 whole entry, species assumed): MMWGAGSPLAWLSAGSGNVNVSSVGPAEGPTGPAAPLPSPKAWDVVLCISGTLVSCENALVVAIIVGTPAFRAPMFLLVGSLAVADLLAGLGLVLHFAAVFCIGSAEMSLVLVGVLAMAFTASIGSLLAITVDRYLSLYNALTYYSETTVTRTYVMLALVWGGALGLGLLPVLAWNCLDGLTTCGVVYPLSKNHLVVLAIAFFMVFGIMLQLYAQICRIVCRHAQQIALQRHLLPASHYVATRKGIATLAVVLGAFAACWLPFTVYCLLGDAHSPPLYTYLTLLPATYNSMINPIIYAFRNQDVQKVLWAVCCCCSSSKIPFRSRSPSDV

## CC(=O)N1CCc2nc(N3CCC(Oc4cccc(F)c4)C3)c(-c3cnn(C)c3)nc2C1 (centres unmarked) [Compound 383, 1-{2-[3-(3-fluorophenoxy)pyrrolidin-1-yl]-3-(1-methyl-1H-pyrazol-4-yl)-5H,6H,7H,8H-pyrido[3,4-b]pyrazin-6-yl}ethan-1-one]
GPR6; [1]
  IC50: 1 to 30 µM
GPR3; [2]
  IC50: 1 to 30 µM

## Fc1ccc(OC2CCN(c3nc4c(nc3-c3cn[nH]c3)CNCC4)CC2)c(F)c1 [Compound 124, 4-(2,4-difluorophenoxy)-1-[3-(1H-pyrazol-4-yl)-5H,6H,7H,8H-pyrido[3,4-b]pyrazin-2-yl]piperidine]
GPR6; [1]
  IC50: 1 to 30 µM
GPR3; [2]
  IC50: 1 to 30 µM

## CC(=O)N1CCc2nc(N3CCN(C(=O)c4ccc(F)cc4F)CC3)c(-c3cnn(C)c3)nc2C1 [Compound 630, 1-{2-[4-(2,4-difluorobenzoyl)-1-piperazinyl]-3-(1-methyl-4-pyrazolyl)-5,6,7,8-tetrahydro-1,4,6-triaza-6-naphthyl}-1-ethanone]
GPR6; procedure of Example 24
  IC50: 1 to 30 µM
GPR3; procedure of Example 24
  IC50: ≥ 30 µM

## CC(=O)N1CCc2nc(N3CCC(Oc4ccc(F)cc4)CC3)c(-c3cnn(C)c3)nc2C1 [Compound 421, 1-{2-[4-(4-fluorophenoxy)piperidin-1-yl]-3-(1-methyl-1H-pyrazol-4-yl)-5H,6H,7H,8H-pyrido[3,4-b]pyrazin-6-yl}ethan-1-one]
GPR6; [1]
  IC50: 1 to 30 µM
GPR3; [2]
  IC50: 1 to 30 µM

## CC(=O)N1CCc2nc(N3CCN(Cc4cc(C#N)ccc4F)CC3)c(-c3cnn(C)c3)nc2C1 [Compound 357, 3-({4-[6-acetyl-3-(1-methyl-1H-pyrazol-4-yl)-5H,6H,7H,8H-pyrido[3,4-b]pyrazin-2-yl]piperazin-1-yl}methyl)-4-fluorobenzonitrile]
GPR6; procedure of Example 24
  IC50: 1 to 30 µM
GPR3; procedure of Example 24
  IC50: 1 to 30 µM

## CC(=O)N1CCc2nc(N3CCN(Cc4ccco4)CC3)c(-c3cnn(C)c3)nc2C1 [Compound 537, 1-[2-(4-furfuryl-1-piperazinyl)-3-(1-methyl-4-pyrazolyl)-5,6,7,8-tetrahydro-1,4,6-triaza-6-naphthyl]-1-ethanone]
GPR6; [3]
  IC50: 1 to 30 µM
GPR3; [4]
  IC50: 1 to 30 µM

## CC(=O)N1CCc2nc(N3CCN(Cc4cc(Cl)ccc4Cl)CC3)c(-c3ccc(F)c(N)n3)nc2C1 [Compound 580, 1-[3-(6-amino-5-fluoro-2-pyridyl)-2-{4-[(2,5-dichlorophenyl)methyl]-1-piperazinyl}-5,6,7,8-tetrahydro-1,4,6-triaza-6-naphthyl]-1-ethanone]
GPR6; [3]
  IC50: < 0.1 µM
GPR3; [4]
  IC50: 1 to 30 µM

## CCn1cc(-c2nc3c(nc2N2CCC(Oc4ccc(F)cc4F)CC2)CCN(C(=O)CO)C3)cn1 [Compound 311, 1-{2-[4-(2,4-difluorophenoxy)piperidin-1-yl]-3-(1-ethyl-1H-pyrazol-4-yl)-5H,6H,7H,8H-pyrido[3,4-b]pyrazin-6-yl}-2-hydroxyethan-1-one]
GPR6; procedure of Example 24
  IC50: < 0.1 µM
GPR3; procedure of Example 24
  IC50: 1 to 30 µM

## COCCNc1cc2nc(N3CCC(Oc4ccc(F)cc4F)CC3)c(-c3cnn(C)c3)nc2cn1 [Compound 380, 2-[4-(2,4-difluorophenoxy)piperidin-1-yl]-N-(2-methoxyethyl)-3-(1-methyl-1H-pyrazol-4-yl)pyrido[3,4-b]pyrazin-7-amine]
GPR6; [1]
  IC50: 0.1 to 1 µM
GPR3; [2]
  IC50: 1 to 30 µM

## Cn1cc(-c2nc3cc(Cl)ncc3nc2N2CCN(Cc3ccc(F)cc3F)CC2)cn1 [Compound 227, 1-[7-chloro-2-(1-methyl-1H-pyrazol-4-yl)pyrido[3,4-b]pyrazin-3-yl]-4-[(2,4-difluorophenyl)methyl] piperazine]
GPR6; [1]
  IC50: 0.1 to 1 µM
GPR3; [2]
  IC50: 1 to 30 µM

## Cn1cc(-c2nc3cnc(C(O)CO)cc3nc2N2CCC(Oc3ccc(F)cc3F)CC2)cn1 (centres unmarked) [Compound 470, 1-(2-(4-(2,4-difluorophenoxy)piperidin-1-yl)-3-(1-methyl-1H-pyrazol-4-yl)pyrido[3,4-b]pyrazin-7-yl)ethane-1,2-diol]
GPR6; [1]
  IC50: 1 to 30 µM
GPR3; [2]
  IC50: 1 to 30 µM

## CC(=O)N1CCc2nc(C3=CCC(Oc4ccc(F)cc4F)CC3)c(-c3ncco3)nc2C1 (centres unmarked) [Compound 303, 1-{2-[4-(2,4-difluorophenoxy)cyclohex-1-en-1-yl]-3-(1,3-oxazol-2-yl)-5H,6H,7H,8H-pyrido[3,4-b]pyrazin-6-yl}ethan-1-one]
GPR6; procedure of Example 24
  IC50: ≥ 30 µM
GPR3; procedure of Example 24
  IC50: ≥ 30 µM

## Cn1cc(-c2nc3ccc(C(O)C(C)(C)O)nc3nc2N2CCN(Cc3ccc(F)cc3F)CC2)cn1 (centres unmarked) [Compound 569, 1-(3-{4-[(2,4-difluorophenyl)methyl]-1-piperazinyl}-2-(1-methyl-4-pyrazolyl)-1,4,5-triaza-6-naphthyl)-2-methyl-1,2-propanediol]
GPR6; [3]
  IC50: 1 to 30 µM
GPR3; [4]
  IC50: ≥ 30 µM

## Cn1cc(-c2nc3cnc(C(O)C4CC4)cc3nc2N2CCC(Oc3ccc(F)cc3F)CC2)cn1 (centres unmarked) [Compound 250, cyclopropyl(2-(4-(2,4-difluorophenoxy)piperidin-1-yl)-3-(1-methyl-1H-pyrazol-4-yl)pyrido[3,4-b]pyrazin-7-yl)methanol]
GPR6; [1]
  IC50: 1 to 30 µM
GPR3; [2]
  IC50: 1 to 30 µM

## CC(C)(O)C(C)(O)c1cc2nc(-c3cnn(CF)c3)c(N3CCC(Oc4ccc(F)cc4F)CC3)nc2cn1 (centres unmarked) [Compound 661, 2-{3-[4-(2,4-difluorophenoxy)-1-piperidyl]-2-[1-(fluoromethyl)-4-pyrazolyl]-1,4,6-triaza-7-naphthyl}-3-methyl-2,3-butanediol]
GPR6; procedure of Example 24
  IC50: 0.1 to 1 µM
GPR3; procedure of Example 24
  IC50: 1 to 30 µM

## Fc1ccc(OC2CCN(c3nc4c(nc3-c3cn[nH]c3)CN(C3COC3)CC4)CC2)c(F)c1 [Compound 199, 4-(2,4-difluorophenoxy)-1-[6-(oxetan-3-yl)-3-(1H-pyrazol-4-yl)-5H,6H,7H,8H-pyrido[3,4-b]pyrazin-2-yl]piperidine]
GPR6; [1]
  IC50: 0.1 to 1 µM
GPR3; [2]
  IC50: 1 to 30 µM

## CC(=O)N1CCc2nc(N3CCCC(Oc4cccc(F)c4)C3)c(-c3cnn(C)c3)nc2C1 (centres unmarked) [Compound 337, 1-{2-[3-(3-fluorophenoxy)piperidin-1-yl]-3-(1-methyl-1H-pyrazol-4-yl)-5H,6H,7H,8H-pyrido[3,4-b]pyrazin-6-yl}ethan-1-one]
GPR6; procedure of Example 24
  IC50: ≥ 30 µM
GPR3; procedure of Example 24
  IC50: 1 to 30 µM

## CC(=O)OC1CCN(c2nc3c(nc2-c2cnn(C)c2)CN(Cc2ccccc2)CC3)C1 (centres unmarked) [Compound 495, 1-[6-benzyl-3-(1-methyl-4-pyrazolyl)-5,6,7,8-tetrahydro-1,4,6-triaza-2-naphthyl]-3-pyrrolidinyl acetate]
GPR6; [3]
  IC50: 1 to 30 µM
GPR3; [4]
  IC50: ≥ 30 µM

## CC(C)(O)[C@@H](O)c1cc2nc(N3CCC(Oc4ccc(F)cc4F)CC3)c(-c3cnn(CF)c3)nc2cn1 (single isomer, unassigned) [Compound 597]
GPR6; [3]
  IC50: 0.1 to 1 µM
GPR3; [4]
  IC50: 1 to 30 µM

## COCCN1CCc2nc(N3CCC(Oc4ccc(F)cc4F)CC3)c(-c3cnn(C4CCCCO4)c3)nc2C1 (centres unmarked) [Compound 142, 4-(2,4-difluorophenoxy)-1-[6-(2-methoxyethyl)-3-[1-(oxan-2-yl)-1H-pyrazol-4-yl]-5H,6H,7H,8H-pyrido[3,4-b]pyrazin-2-yl]piperidine]
GPR6; [1]
  IC50: 1 to 30 µM
GPR3; [2]
  IC50: 1 to 30 µM

## N#CCN1CCc2nc(N3CCC(Oc4ccc(F)cc4F)CC3)c(-c3cnn(C4CCCCO4)c3)nc2C1 (centres unmarked) [Compound 118, 2-{2-[4-(2,4-difluorophenoxy)piperidin-1-yl]-3-[1-(oxan-2-yl)-1H-pyrazol-4-yl]-5H,6H,7H,8H-pyrido[3,4-b]pyrazin-6-yl}acetonitrile]
GPR6; [1]
  IC50: 1 to 30 µM
GPR3; [2]
  IC50: 1 to 30 µM

## CC(=O)N1CCc2nc(N3CCC(Oc4ccc(F)cc4F)CC3)c(-c3cccc(C#N)n3)nc2C1 [Compound 2, 6-{6-acetyl-2-[4-(2,4-difluorophenoxy)piperidin-1-yl]-5H,6H,7H,8H-pyrido[3,4-b]pyrazin-3-yl}pyridine-2-carbonitrile]
GPR6; [5]
  IC50: 0.1 to 1 µM
GPR3; [5]
  IC50: 1 to 30 µM
